Measured values published in patent US11266655B2, “Methods and compositions for treating urea cycle disorders” (Camp4 Therapeutics Corporation, priority 2019, dated 2022).
“And” between values parts separate entries of the source, which are not always exact repeats. Equal values may be shown once. Where a name gives a salt, the structure may show the parent alone.

Legend:
[1] = tested on: OTC; assay: OTC expression modulated by compounds, OTC/GeoMean of housekeeping genes, DMSO = 1 (Table 3A); assay type: cell-based, human; details: 10 uM final concentration
[2] = tested on: SLC25A15; assay: RNA-seq of compound-treated primary human hepatocytes, SLC25A15 expression; assay type: cell-based
[3] = tested on: OTC; assay: RNA-seq of compound-treated primary human hepatocytes, OTC expression; assay type: cell-based
[4] = tested on: ASS1; assay: RNA-seq of compound-treated primary human hepatocytes, ASS1 expression; assay type: cell-based
[5] = tested on: CPS1; assay: RNA-seq of compound-treated primary human hepatocytes, CPS1 expression; assay type: cell-based
[6] = tested on: ARG1; assay: RNA-seq of compound-treated primary human hepatocytes, ARG1 expression; assay type: cell-based
[7] = tested on: SLC25A13; assay: RNA-seq of compound-treated primary human hepatocytes, SLC25A13 expression; assay type: cell-based; details: primary human hepatocytes, triplicate (Table 23, FIG. 15)
[8] = tested on: OTC; assay: HSP90 or HSP70 inhibitors in primary human hepatocytes, OTC mRNA; assay type: cell-based; details: hepatocytes from Donor B, normalized to B2M
Procedure: (§1) Additional small molecules that inhibit HSP90 or HSP70 were tested in primary human hepatocytes as described in Example 2. HSP90 or HSP70 inhibitors were tested in triplicate at 0.3 μM and 3 μM. The results are shown as the fold change (mRNA FC) in the mRNA levels of OTC and CPS1 genes after treatment compared to an untreated control (DMSO) and the standard deviation (SD). In addition, a dose titration experiment was performed with selected HSP90 inhibitors. Hepatocytes were incubated with increasing concentrations of HSP90 inhibitors and the changes in OTC and CPS1 expression quantified as previously described.
(§2) HSP90 and HSP70 inhibitors were compared to confirm the role of HSP90 in modulating OTC and CPS1 expression. Hepatocytes from Donor B were incubated with various HSP90 inhibitors or an HSP70 inhibitor, Pifithrin-μ, and then harvested for mRNA quantification. OTC and CPS1 mRNA levels were normalized to B2M.

[9] = tested on: CPS1; assay: HSP90 or HSP70 inhibitors in primary human hepatocytes, CPS1 mRNA; assay type: cell-based; details: hepatocytes from Donor B, normalized to B2M
Procedure: as §1, §2

[10] = tested on: OTC; assay: HSP90 inhibitor dose titration in hepatocytes of donors A and B, OTC mRNA normalized to B2M; assay type: cell-based, human; details: 18 hours
Procedure: as §1
(§3) Hepatocytes from two different donors (A and B) were incubated with the various concentrations of HSP90 inhibitors for 18 hours and harvested for mRNA analysis. OTC and CPS1 mRNA were normalized to house keeping gene B2M gene expression.

[11] = tested on: CPS1; assay: HSP90 inhibitor dose titration in hepatocytes of donors A and B, CPS1 mRNA normalized to B2M; assay type: cell-based, human; details: 18 hours
Procedure: as §1, §3

[12] = tested on: OTC; assay: JAK1 inhibitor dose titration in hepatocytes of donors A and B, OTC mRNA normalized to B2M; assay type: cell-based, human; details: normalized to B2M
Procedure: (§4) Next, two JAK1 inhibitors were tested at increasing concentrations in a dose titration assy. Hepatocytes from two different donors (A and B) were incubated with the various concentrations of upadacitinib or oclacitinib maleate and harvested for mRNA analysis. OTC and CPS1 mRNA were normalized to house keeping gene B2M gene expression.

[13] = tested on: CPS1; assay: JAK inhibitors at 0.3 and 3 μM in primary human hepatocytes, CPS1 mRNA fold change; assay type: cell-based; details: fold change vs DMSO
Procedure: (§5) Additional small molecules that inhibit JAK1, JAK2, JAK3, or a combination of the JAK proteins were tested in primary human hepatocytes as described in Example 2. JAK inhibitors were tested in triplicate at 0.3 μM and 3 μM. The results are shown as the fold change (mRNA FC) in the mRNA levels of OTC and CPS1 genes after treatment compared to an untreated control (DMSO) and the standard deviation (SD).

[14] = tested on: CPS1; assay: JAK1 inhibitor dose titration in hepatocytes of donors A and B, CPS1 mRNA normalized to B2M; assay type: cell-based, human; details: normalized to B2M
Procedure: as §4

[15] = tested on: OTC; assay: JAK inhibitors at 0.3 and 3 μM in primary human hepatocytes, OTC mRNA fold change; assay type: cell-based; details: fold change vs DMSO
Procedure: as §5

## CC1(C)CC(=O)c2c(C(F)(F)F)nn(-c3ccc(C(N)=O)c(N[C@H]4CC[C@H](OC(=O)CN)CC4)c3)c2C1 [PF-04929113 (SNX-5422)]
[1]
  Max Value (OTC/GeoMean of HKs; DMSO = 1): 1.73

## FC(F)(F)c1ccc(/C=C/c2nc(COc3ccc(CCCCn4ccnn4)cc3)co2)cc1 [Mubritinib (TAK 165), Mubritinib]
[2]
  Increase in SLC25A15 gene expression (qualitative): greatest increase
[3]
  increase in OTC gene expression (Table 14, FIG. 6): significant increase
[4]
  Relative ASS1 level vs Untreated (±Standard Deviation): 2.56 ± 0.11 and 2.23 ± 0.53 and 2.52 ± 0.15 and 1.66 ± 0.98 and 1.87 ± 0.24 and 2.14 ± 0.39 and 2.77 ± 0.69
  increase in ASS1 gene expression (Tables 15, 16, FIG. 7, 8): greatest increase
[5]
  increase in CPS1 gene expression (Tables 19, 20, FIG. 11, 12): greatest increase
[6]
  Relative ARGI level vs Untreated (±Standard Deviation): 1.93 ± 0.05 and 1.86 ± 0.04
  increase in ARG1 gene expression (Tables 17, 18, FIG. 9, 10): greatest increase
[7]; 0.3 μM
  Relative SLC25A13 level vs Untreated (±Standard Deviation): 1.34 ± 0.33

## CC1(C)CC(=O)c2c(C(F)(F)F)nn(-c3ccc(C(N)=O)c(N[C@H]4CC[C@H](OC(=O)CN)CC4)c3)c2C1 [PF-04929113]
[8]; 0.3 uM
  OTC Expression mRNA FC: 1.77
[8]; 3 uM
  OTC Expression mRNA FC: 4.28
[9]; 0.3 uM
  CPS1 Expression mRNA FC: 1.62
[9]; 3 uM
  CPS1 Expression mRNA FC: 2.09
[5]; 3 μM, primary human hepatocytes, triplicate (Table 19, FIG. 11)
  Relative CPS1 level vs Untreated (±Standard Deviation): 1.38 ± 0.13

## C=CCNc1c(O)cc2c(O)c1C[C@@H](C)C[C@H](OC)[C@H](O)[C@@H](C)/C=C(\C)[C@H](OC(N)=O)[C@@H](OC)/C=C\C=C(/C)C(=O)N2 [Retaspimycin Hydrochloride]
[8]; 0.3 uM
  OTC Expression mRNA FC: 2.98
[8]; 3 uM
  OTC Expression mRNA FC: 2.53
[2]; Hydrochloride
  Relative SLC25A15 level vs Untreated (±Standard Deviation): 1.35 ± 0.27 and 1.31 ± 0.08 and 1.54 ± 0.17 and 1.45 ± 0.01 and 1.60 ± 0.25 and 1.67 ± 0.17 and 1.93 ± 0.13 and 1.77 ± 0.11
[9]; 0.3 uM
  CPS1 Expression mRNA FC: 1.23
[9]; 3 uM
  CPS1 Expression mRNA FC: 2.24
[10]; 0.01 uM
  OTC mRNA FC, Donor A: 1.40
  OTC mRNA FC, Donor B: 1.31
[10]; 0.03 uM
  OTC mRNA FC, Donor A: 5.91
  OTC mRNA FC, Donor B: 1.78
[10]; 0.1 uM
  OTC mRNA FC, Donor A: 9.07
  OTC mRNA FC, Donor B: 5.18
[4]
  Relative ASS1 level vs Untreated (±Standard Deviation): 1.38 ± 0.13
[6]
  Relative ARGI level vs Untreated (±Standard Deviation): 1.31 ± 0.12
[11]; 0.01 uM
  CPS1 mRNA FC, Donor A: 1.54
  CPS1 mRNA FC, Donor B: 1.29
[11]; 0.03 uM
  CPS1 mRNA FC, Donor A: 3.17
  CPS1 mRNA FC, Donor B: 1.67
[11]; 0.1 uM
  CPS1 mRNA FC, Donor A: 3.76
  CPS1 mRNA FC, Donor B: 2.57
[7]; 0.3 μM
  Relative SLC25A13 level vs Untreated (±Standard Deviation): 1.35 ± 0.27
[7]; 1 μM
  Relative SLC25A13 level vs Untreated (±Standard Deviation): 1.31 ± 0.08
[7]; 3 μM
  Relative SLC25A13 level vs Untreated (±Standard Deviation): 1.54 ± 0.17
[7]; 10 μM
  Relative SLC25A13 level vs Untreated (±Standard Deviation): 1.45 ± 0.01

## CC[C@@H]1CN(C(=O)NCC(F)(F)F)C[C@@H]1c1cnc2cnc3[nH]ccc3n12 [upadacitinib]
[12]; 0.1 uM
  OTC mRNA FC, Donor A: 1.36
  OTC mRNA FC, Donor B: 1.56
[12]; 0.3 uM
  OTC mRNA FC, Donor A: 1.99
  OTC mRNA FC, Donor B: 2.06
[12]; 1 uM
  OTC mRNA FC, Donor A: 3.17
  OTC mRNA FC, Donor B: 3.54
[12]; 3 uM
  OTC mRNA FC, Donor A: 4.81
  OTC mRNA FC, Donor B: 4.66
[12]; 10 uM
  OTC mRNA FC, Donor A: 6.77
  OTC mRNA FC, Donor B: 9.39
[13]; 0.3 uM
  CPS1 mRNA FC: 2.02
[13]; 3 uM
  CPS1 mRNA FC: 1.39
[14]; 0.1 uM
  CPS1 mRNA FC, Donor A: 1.26
  CPS1 mRNA FC, Donor B: 3.74
[14]; 0.3 uM
  CPS1 mRNA FC, Donor A: 1.58
  CPS1 mRNA FC, Donor B: 2.54
[14]; 1 uM
  CPS1 mRNA FC, Donor A: 2.70
  CPS1 mRNA FC, Donor B: 2.38
[14]; 3 uM
  CPS1 mRNA FC, Donor A: 3.15
  CPS1 mRNA FC, Donor B: 1.43
[14]; 10 uM
  CPS1 mRNA FC, Donor A: 4.25
  CPS1 mRNA FC, Donor B: 1.21
[15]; 0.3 uM
  OTC mRNA FC: 2.91
[15]; 3 uM
  OTC mRNA FC: 2.75

## CC1(C)CC[C@]2(C(=O)O)CC[C@]3(C)[C@H](C(=O)C=C4[C@@]5(C)C=C(C#N)C(=O)C(C)(C)[C@@H]5CC[C@]43C)[C@@H]2C1 [Bardoxolone]
[1]
  Max Value (OTC/GeoMean of HKs; DMSO = 1): 2.76

## CO[C@H]1/C=C\C=C(/C)C(=O)NC2=CC(=O)C(NCCN(C)C)=C(C[C@@H](C)C[C@H](OC)[C@H](O)[C@@H](C)/C=C(\C)[C@@H]1OC(N)=O)C2=O [Alvespimycin hydrochloride]
[8]; 0.3 uM
  OTC Expression mRNA FC: 1.94
[8]; 3 uM
  OTC Expression mRNA FC: 1.03
[9]; 0.3 uM
  CPS1 Expression mRNA FC: 1.41
[9]; 3 uM
  CPS1 Expression mRNA FC: 1.54
